# Experimental data: patent US11807625B2, “Capsid inhibitors for the prevention of HIV” (Gilead Sciences, Inc., priority 2019, dated 2023)
# Like-named read-outs stand apart in the source and are kept apart here.
# Test: PK of compound of Formula (Ia) after single subcutaneous dose of solution formulations in Wistar Han rats
# Format: in vivo
# Conditions: male, Wistar Han, rat, plasma, mean ± SD, SC 50 mg/kg; for AUC(0-t) / Cmax: sc, 50 mg/kg
# Description: Formulations containing the compound of Formula (Ia), or a pharmaceutically acceptable salt thereof, were prepared as solutions and optionally administered subcutaneously or intramuscularly to rats, rabbits, and/or dogs.
# A solution of about 400 mg/mL of the compound of Formula (Ia) having 19.14 w/w % water, 40.66 w/w % PEG 300, 35.20 w/w % of a sodium salt of a compound of Formula (Ia), and 5.00% ethanol was prepared. The solution was administered subcutaneously to male Wistar Han rats at a dose level of about 50 mg/kg and dose volume of 0.125 mL/kg and the pharmacokinetic (PK) profile was determined.
# A solution of about 500 mg/mL of the compound of Formula (Ia) having 16.64 w/w % water, 35.36 w/w % PEG 300, 43.00 w/w % of a sodium salt of a compound of Formula (Ia), and 5.00% ethanol was prepared. The solution was administered subcutaneously to male Wistar Han rats at a dose level of about 50 mg/kg and dose volume of 0.1 mL/kg and the pharmacokinetic (PK) profile was determined.
# A solution of about 400 mg/mL of the compound of Formula (Ia) having 17.00 w/w % water, 36.40 w/w % PEG 300, 35.20 w/w % of a sodium salt of a compound of Formula (Ia), 5.00 w/w % ethanol, and 6.40 w/w % poloxamer 188 was prepared. The solution was administered subcutaneously to male beagle dogs at a dose level of about 12 mg/kg and male Wistar Han rats at a dose level of about 50 mg/kg. The pharmacokinetic profiles were determined, and the results for dogs are summarized in Table and Table, while the results for rats are summarized in Table and Table below.
# A solution of about 500 mg/mL of the compound of Formula (Ia) having 14.06 w/w % water, 30.12 w/w % PEG 300, […] of a sodium salt of a compound of Formula (Ia), 5.00 w/w % ethanol, and 6.40 w/w % poloxamer 188 was prepared. The solution was administered subcutaneously to male beagle dogs at a dose level of about 12 mg/kg and male Wistar Han rats at a dose level of about 50 mg/kg. The pharmacokinetic profiles were determined, and the results for dogs are summarized in Table and Table, while the results for rats are summarized in Table and Table below.
# A solution of about 300 mg/mL of the compound of Formula (Ia) having 23.33 w/w % water, 48.99 w/w % PEG 300, 26.47 w/w % of a sodium salt of a compound of Formula (Ia), and 1.21 w/w % poloxamer 188 was prepared. The solution was administered subcutaneously to male beagle dogs at a dose level of about 6 mg/kg and male Wistar Han rats at a dose level of about 50 mg/kg. The pharmacokinetic profiles were determined, and the results for dogs are summarized in Table and Table, while the results for rats are summarized in Table and Table below.
# A solution of about 400 mg/mL of the compound of Formula (Ia) having 18.80 w/w % water, 40.25 w/w % PEG 300, 34.38 w/w % of a sodium salt of a compound of Formula (Ia), 5.00 w/w % ethanol, and 1.57 w/w % poloxamer 188 was prepared. The solution was administered subcutaneously to male beagle dogs at a dose level of about 12 mg/kg and male Wistar Han rats at a dose level of about 50 mg/kg. The pharmacokinetic profiles were determined, and the results for dogs are summarized in Table and Table, while the results for rats are summarized in Table and Table below.
# A solution of about 500 mg/mL of the compound of Formula (Ia) having 16.29 w/w % water, 34.88 w/w % PEG 300, 41.92 w/w % of a sodium salt of a compound of Formula (Ia), 5.00 w/w % ethanol, and 1.91 w/w % poloxamer 188 was prepared. The solution was administered subcutaneously to male beagle dogs at a dose level of about 12 mg/kg and male Wistar Han rats at a dose level of about 50 mg/kg. The pharmacokinetic profiles were determined, and the results for dogs are summarized in Table and Table, while the results for rats are summarized in Table and Table below.
# A solution of about 400 mg/mL of the compound of Formula (Ia) having 20.90 w/w % water, 44.72 w/w % PEG 300, and 34.38 w/w % of a sodium salt of a compound of Formula (Ia) was prepared. […]
# [1] = n = 5 rats, solution T, 400 mg/mL
structure (smiles),measurement,setting,value
CC(C)(C#Cc1ccc(-c2ccc(Cl)c3c(NS(C)(=O)=O)nn(CC(F)(F)F)c23)c([C@H](Cc2cc(F)cc(F)c2)NC(=O)Cn2nc(C(F)(F)F)c3c2C(F)(F)[C@@H]2C[C@H]32)n1)S(C)(=O)=O [compound of Formula (Ia)],AUC(0-t),"n = 3 rats, solution R, 400 mg/mL, read-out: AUC0-1344h",402 ± 58 µM·h
same,AUC(0-t),"n = 3 rats, solution R, 400 mg/mL, read-out: AUC0-1680h",504 ± 80 µM·h
same,AUC(0-t),"n = 3 rats, solution R, 400 mg/mL, read-out: AUC0-2352h",649 ± 95 µM·h
same,AUC(0-t),"n = 3 rats, solution R, 400 mg/mL, read-out: AUC0-3024h",752 ± 92 µM·h
same,AUC(0-t),"n = 3 rats, solution R, 400 mg/mL, read-out: AUC0-3696h",825 ± 80 µM·h
same,AUC(0-t),"n = 3 rats, solution R, 400 mg/mL, read-out: AUC0-4704h",915 ± 44 µM·h
same,AUC(0-t),"n = 3 rats, solution R, 400 mg/mL, read-out: AUC0-5376h",958 ± 21 µM·h
same,AUC(0-t),"n = 3 rats, solution R, 400 mg/mL, read-out: AUC0-6048h",988 ± 4 µM·h
same,AUC(0-t),"n = 3 rats, solution R, 400 mg/mL, read-out: AUC0-7392h",1020 ± 18 µM·h
same,AUC(0-t),"n = 3 rats, solution R, 400 mg/mL, read-out: AUC0-8064h",1030 ± 25 µM·h
same,Cmax,"n = 3 rats, solution S, 500 mg/mL",328 ± 131 nM
same,AUC(0-t),"n = 3 rats, solution S, 500 mg/mL, read-out: AUC0-24 h",2.47 ± 0.39 µM·h
same,AUC(0-t),"n = 3 rats, solution S, 500 mg/mL, read-out: AUC0-168 h",19.7 ± 3.1 µM·h
same,AUC(0-t),"n = 3 rats, solution S, 500 mg/mL, read-out: AUC0-336 h",44.2 ± 7.5 µM·h
same,AUC(0-t),"n = 3 rats, solution S, 500 mg/mL, read-out: AUC0-672 h",133 ± 40 µM·h
same,AUC(0-t),"n = 3 rats, solution S, 500 mg/mL, read-out: AUC0-1008 h",233 ± 79 µM·h
same,AUC(0-t),"n = 3 rats, solution S, 500 mg/mL, read-out: AUC0-1344 h",334 ± 120 µM·h
same,AUC(0-t),"n = 3 rats, solution S, 500 mg/mL, read-out: AUC0-1680 h",426 ± 148 µM·h
same,AUC(0-t),"n = 3 rats, solution S, 500 mg/mL, read-out: AUC0-2352 h",554 ± 185 µM·h
same,AUC(0-t),"n = 3 rats, solution S, 500 mg/mL, read-out: AUC0-3024 h",652 ± 203 µM·h
same,AUC(0-t),"n = 3 rats, solution S, 500 mg/mL, read-out: AUC0-3696 h",722 ± 216 µM·h
same,AUC(0-t),"n = 3 rats, solution S, 500 mg/mL, read-out: AUC0-4704 h",817 ± 224 µM·h
same,AUC(0-t),"n = 3 rats, solution S, 500 mg/mL, read-out: AUC0-5376 h",861 ± 226 µM·h
same,AUC(0-t),"n = 3 rats, solution S, 500 mg/mL, read-out: AUC0-6048 h",896 ± 220 µM·h
same,AUC(0-t),"n = 3 rats, solution S, 500 mg/mL, read-out: AUC0-6720 h",923 ± 229 µM·h
same,AUC(0-t),"n = 3 rats, solution S, 500 mg/mL, read-out: AUC0-7392 h",945 ± 229 µM·h
same,AUC(0-t),"n = 3 rats, solution S, 500 mg/mL, read-out: AUC0-8064 h",964 ± 228 µM·h
same,AUC(0-t),"n = 3 rats, solution V, 300 mg/mL, read-out: AUC0-24 h",3.66 ± 4.29 µM·h
same,AUC(0-t),"n = 3 rats, solution V, 300 mg/mL, read-out: AUC0-168 h",24.5 ± 5.4 µM·h
same,AUC(0-t),"n = 3 rats, solution V, 300 mg/mL, read-out: AUC0-336 h",50.1 ± 9.2 µM·h
same,AUC(0-t),"n = 3 rats, solution V, 300 mg/mL, read-out: AUC0-672 h",137 ± 27 µM·h
same,AUC(0-t),"n = 3 rats, solution V, 300 mg/mL, read-out: AUC0-1008 h",237 ± 52 µM·h
same,AUC(0-t),"n = 3 rats, solution V, 300 mg/mL, read-out: AUC0-1344 h",331 ± 85 µM·h
same,AUC(0-t),"n = 3 rats, solution V, 300 mg/mL, read-out: AUC0-1680 h",423 ± 96 µM·h
same,AUC(0-t),"n = 3 rats, solution V, 300 mg/mL, read-out: AUC0-2352 h",554 ± 113 µM·h
same,AUC(0-t),"n = 3 rats, solution V, 300 mg/mL, read-out: AUC0-3024 h",646 ± 121 µM·h
same,AUC(0-t),"n = 3 rats, solution V, 300 mg/mL, read-out: AUC0-3696 h",700 ± 121 µM·h
same,AUC(0-t),"n = 3 rats, solution V, 300 mg/mL, read-out: AUC0-4704 h",720 ± 120 µM·h
same,Cmax,[1],450 ± 155 nM
same,AUC(0-t),"n = 5 rats, solution T, 400 mg/mL, read-out: AUC0-24 h",5.49 ± 1.6 µM·h
same,AUC(0-t),"n = 5 rats, solution T, 400 mg/mL, read-out: AUC0-168 h",40.6 ± 15.3 µM·h
same,AUC(0-t),"n = 5 rats, solution T, 400 mg/mL, read-out: AUC0-336 h",76.4 ± 25.3 µM·h
same,AUC(0-t),"n = 5 rats, solution T, 400 mg/mL, read-out: AUC0-672 h",173 ± 75.6 µM·h
same,AUC(0-t),"n = 5 rats, solution T, 400 mg/mL, read-out: AUC0-1008 h",313 ± 157 µM·h
same,AUC(0-t),"n = 5 rats, solution T, 400 mg/mL, read-out: AUC0-1344 h",394 ± 185 µM·h
same,AUC(0-t),"n = 5 rats, solution T, 400 mg/mL, read-out: AUC0-1680 h",485 ± 195 µM·h
same,AUC(0-t),"n = 5 rats, solution T, 400 mg/mL, read-out: AUC0-2352 h",581 ± 146 µM·h
same,AUC(0-t),"n = 5 rats, solution T, 400 mg/mL, read-out: AUC0-3024 h",655 ± 112 µM·h
same,AUC(0-t),"n = 5 rats, solution T, 400 mg/mL, read-out: AUC0-3696 h",679 ± 103 µM·h
same,AUC(0-t),"n = 5 rats, solution T, 400 mg/mL, read-out: AUC0-4704 h",718 ± 88 µM·h
same,AUC(0-t),"n = 5 rats, solution T, 400 mg/mL, read-out: AUC0-5376 h",745 ± 76 µM·h
same,AUC(0-t),"n = 5 rats, solution T, 400 mg/mL, read-out: AUC0-6048 h",766 ± 66 µM·h
same,AUC(0-t),"n = 5 rats, solution T, 400 mg/mL, read-out: AUC0-6720 h",783 ± 59 µM·h
same,Cmax,"n = 5 rats, solution U, 500 mg/mL",362 ± 147 nM
same,AUC(0-t),"n = 5 rats, solution U, 500 mg/mL, read-out: AUC0-24 h",3.74 ± 0.78 µM·h
same,AUC(0-t),"n = 5 rats, solution U, 500 mg/mL, read-out: AUC0-168 h",29.8 ± 7.5 µM·h
same,AUC(0-t),"n = 5 rats, solution U, 500 mg/mL, read-out: AUC0-336 h",63.2 ± 20.7 µM·h
same,AUC(0-t),"n = 5 rats, solution U, 500 mg/mL, read-out: AUC0-672 h",159 ± 77 µM·h
same,AUC(0-t),"n = 5 rats, solution U, 500 mg/mL, read-out: AUC0-1008 h",338 ± 141 µM·h
same,AUC(0-t),"n = 5 rats, solution U, 500 mg/mL, read-out: AUC0-1344 h",409 ± 159 µM·h
same,AUC(0-t),"n = 5 rats, solution U, 500 mg/mL, read-out: AUC0-1680 h",529 ± 194 µM·h
same,AUC(0-t),"n = 5 rats, solution U, 500 mg/mL, read-out: AUC0-2352 h",610 ± 215 µM·h
same,AUC(0-t),"n = 5 rats, solution U, 500 mg/mL, read-out: AUC0-3024 h",669 ± 233 µM·h
same,AUC(0-t),"n = 5 rats, solution U, 500 mg/mL, read-out: AUC0-3696 h",692 ± 233 µM·h
same,AUC(0-t),"n = 5 rats, solution U, 500 mg/mL, read-out: AUC0-4704 h",728 ± 249 µM·h
same,AUC(0-t),"n = 5 rats, solution U, 500 mg/mL, read-out: AUC0-5376 h",756 ± 256 µM·h
same,AUC(0-t),"n = 5 rats, solution U, 500 mg/mL, read-out: AUC0-6048 h",781 ± 261 µM·h
same,AUC(0-t),"n = 5 rats, solution U, 500 mg/mL, read-out: AUC0-6720 h",802 ± 266 µM·h
same,AUC,"n = 3 rats, solution R, 400 mg/mL, read-out: AUC0-6720n",1007 ± 8 µM·h
same,Tmax,[1],18.8 ± 17.5 days
